Consider 4 compounds from ChEMBL document CHEMBL4014316, “Amphiphilic Guanidinocalixarenes Inhibit Lipopolysaccharide (LPS)- and Lectin-Stimulated Toll-like Receptor 4 (TLR4) Signaling” (J Med Chem, 2017).

Common to all, as to type: cell-based
For one series, the target named is Toll-like receptor 4 (Homo sapiens, UniProt O00206). As to the kind of experiment: Activation of TLR4 signaling (unknown origin) expressed in HEK-Blue cells after 30 mins by secreted embryonic alkaline phosphatase reporter gene assay. To be noted: 0.5 h.
Series [1] in a line: Cytotoxicity against HEK-Blue cells assessed as reduction in cell viability up to 10 uM measured after overnight incubation by MTT assay. The settings on record: human.
For series [2], the target named is Toll-like receptor 4/MD-2/CD14 (Homo sapiens) (UniProt O00206+Q9Y6Y9+P08571). The experiment in a line: (§1) Binding affinity to CD14/MD2 (unknown origin) expressed in HEK-Blue cells co-expressing TLR4 assessed as inhibition of LPS-induced TLR4 signaling preincubated for 30 mins followed by LPS stimulation measured after overnight incubation by secreted embryonic alkaline phosphatase reporter gene assay.

The target of series [3] is Toll-like receptor 4/MD-2/CD14 (Homo sapiens, UniProt O00206+P08571+Q9Y6Y9). Described as §1.

Molecules are shown by their SMILES.

Sequence of Toll-like receptor 4 (O00206 whole entry): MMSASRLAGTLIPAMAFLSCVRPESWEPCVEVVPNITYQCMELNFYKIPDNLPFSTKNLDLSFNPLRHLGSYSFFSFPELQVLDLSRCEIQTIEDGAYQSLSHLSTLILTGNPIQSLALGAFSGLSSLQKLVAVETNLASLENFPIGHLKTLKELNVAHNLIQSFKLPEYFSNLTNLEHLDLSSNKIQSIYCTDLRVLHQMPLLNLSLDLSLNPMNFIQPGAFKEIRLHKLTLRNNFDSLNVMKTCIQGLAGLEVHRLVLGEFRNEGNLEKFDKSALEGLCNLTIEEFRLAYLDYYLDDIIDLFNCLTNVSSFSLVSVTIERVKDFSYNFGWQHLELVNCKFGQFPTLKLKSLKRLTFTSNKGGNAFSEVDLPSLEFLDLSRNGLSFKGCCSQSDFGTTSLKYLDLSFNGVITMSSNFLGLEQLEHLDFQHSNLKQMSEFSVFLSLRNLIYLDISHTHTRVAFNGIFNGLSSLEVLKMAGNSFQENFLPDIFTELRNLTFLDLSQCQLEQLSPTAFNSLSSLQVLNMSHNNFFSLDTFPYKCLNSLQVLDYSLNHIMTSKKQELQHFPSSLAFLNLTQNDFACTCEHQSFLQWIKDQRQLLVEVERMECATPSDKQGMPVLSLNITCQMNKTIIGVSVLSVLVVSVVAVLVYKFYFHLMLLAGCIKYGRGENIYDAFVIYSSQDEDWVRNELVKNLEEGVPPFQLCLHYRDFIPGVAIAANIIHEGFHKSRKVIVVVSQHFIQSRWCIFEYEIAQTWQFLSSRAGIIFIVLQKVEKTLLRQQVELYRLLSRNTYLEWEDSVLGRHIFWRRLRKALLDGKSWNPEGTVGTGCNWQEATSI
Sequence of Toll-like receptor 4/MD-2/CD14 (O00206 whole entry): as above
Sequence of Toll-like receptor 4/MD-2/CD14 (Q9Y6Y9 whole entry): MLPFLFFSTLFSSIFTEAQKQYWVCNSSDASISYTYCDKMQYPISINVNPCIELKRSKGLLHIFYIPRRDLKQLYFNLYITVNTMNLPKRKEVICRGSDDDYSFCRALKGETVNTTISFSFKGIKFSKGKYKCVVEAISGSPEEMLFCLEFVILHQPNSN
Sequence of Toll-like receptor 4/MD-2/CD14 (P08571 whole entry): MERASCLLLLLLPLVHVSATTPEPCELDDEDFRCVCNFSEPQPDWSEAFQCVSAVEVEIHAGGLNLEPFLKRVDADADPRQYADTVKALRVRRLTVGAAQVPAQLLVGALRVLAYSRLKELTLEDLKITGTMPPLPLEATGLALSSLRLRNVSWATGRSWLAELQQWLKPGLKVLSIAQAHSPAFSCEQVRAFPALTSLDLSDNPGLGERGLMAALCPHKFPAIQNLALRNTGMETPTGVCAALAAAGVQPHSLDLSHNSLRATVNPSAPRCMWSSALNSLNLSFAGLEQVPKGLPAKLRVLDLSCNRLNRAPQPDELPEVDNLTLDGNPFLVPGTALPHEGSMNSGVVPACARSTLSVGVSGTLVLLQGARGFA

`CCCCCCOc1c2cc(NC(=N)N)cc1Cc1cc(NC(=N)N)cc(c1OCCCCCC)Cc1cc(NC(=N)N)cc(c1OCCCCCC)Cc1cc(NC(=N)N)cc(c1OCCCCCC)C2.Cl.Cl.Cl.Cl`: the Activity result at Toll-like receptor 4 is on record as “Not Active”; in series [1], “Non-Toxic”.

As to `CC(C)(C)c1cc2c(OCCCCNC(=N)N)c(c1)Cc1cc(C(C)(C)C)cc(c1OCCCCNC(=N)N)Cc1cc(C(C)(C)C)cc(c1OCCCCNC(=N)N)Cc1cc(C(C)(C)C)cc(c1OCCCCNC(=N)N)C2.Cl.Cl.Cl.Cl`, in series [2], the inhibition entry was “Dose-dependent effect”. The IC50 (commonly the concentration that gives 50% inhibition) in series [3] amounted to 0.2 µM. For the same compound, the Activity entry on Toll-like receptor 4 is on record as “Not Active”.

In the case of `CC(C)(C)c1cc2c(OCCCNC(=N)N)c(c1)Cc1cc(C(C)(C)C)cc(c1OCCCNC(=N)N)Cc1cc(C(C)(C)C)cc(c1OCCCNC(=N)N)Cc1cc(C(C)(C)C)cc(c1OCCCNC(=N)N)C2.Cl.Cl.Cl.Cl`, the inhibition entry in series [2] was “Dose-dependent effect”. Moreover, in series [3], the IC50 came to 10 µM. Besides, at Toll-like receptor 4, the Activity entry was “Not Active”.

Consider `CCCOc1c2cc(NC(=N)N)cc1Cc1cc(NC(=N)N)cc(c1OCCC)Cc1cc(NC(=N)N)cc(c1OCCC)Cc1cc(NC(=N)N)cc(c1OCCC)C2.Cl.Cl.Cl.Cl`, for which the Activity entry is “Not Active” on Toll-like receptor 4 and “Non-Toxic” in series [1].
